Measured values from patent US11078215B2, “Crystalline forms of lorlatinib maleate” (Pfizer Inc., priority 2016, dated 2021).
Structures can show the parent of a compound that is named as a salt. Blank lines part the entries; values can stand above or below the compound they belong to.

How the values were obtained:
[1] = Physical stability of Form 1 drug product vs. acetic acid solvate drug product; conditions: drug product
Source text: The physical stabilities of Form 1 and lorlatinib acetic acid solvate as drug product were investigated under a variety of conditions.

[2] = Slurry experiments, thermodynamic stability of lorlatinib maleate hydrate (Form 2) in a variety of solvent systems; assay type: physicochemical
Protocol: The thermodynamic stability of Form 2 was further assessed in variety of solvent systems at temperatures of 5° C. to 40° C. as shown in Table 11. Suspensions of Form 2 were prepared under the indicated conditions and equilibrated for 2 weeks. Resultant solids were analyzed by PXRD. […] Formation of new materials in ethanol and methanol is believed to be a solvated form.

impurity (solid phase impurity), physical stability of drug product ([1]; 50° C./75% RH, 2 weeks): ~30% impurity
impurity (solid phase impurity), physical stability of drug product ([1]; 70° C./10% RH, 3 weeks): ~80% impurity
impurity (solid phase impurity), physical stability of drug product ([1]; 70° C./40% RH, 2 weeks): ~80% impurity
impurity (solid phase impurity), physical stability of drug product ([1]; 70° C./75% RH, 1 week): ~80% impurity
Structure (SMILES): CC(=O)O.C[C@H]1Oc2cc(cnc2N)-c2c(nn(C)c2C#N)CN(C)C(=O)c2ccc(F)cc21 [lorlatinib acetic acid solvate, reference compound]

Slurry output, solid form by PXRD ([2]; 1,4-dioxane, Aw 0, 5° C., 2 weeks): Form 2
Slurry output, solid form by PXRD ([2]; 1,4-dioxane, Aw 0, 40° C., 2 weeks): Form 2
Slurry output, solid form by PXRD ([2]; 1,4-dioxane, Aw 0, RT, 2 weeks): Form 2
Slurry output, solid form by PXRD ([2]; EtOAc, Aw 0, 5° C., 2 weeks): Form 2
Slurry output, solid form by PXRD ([2]; EtOAc, Aw 0, 40° C., 2 weeks): Form 2
Slurry output, solid form by PXRD ([2]; EtOAc, Aw 0, RT, 2 weeks): Form 2
Slurry output, solid form by PXRD ([2]; EtOAc/water, Aw 0.1, 5° C., 2 weeks): Form 2
Slurry output, solid form by PXRD ([2]; EtOAc/water, Aw 0.1, 40° C., 2 weeks): Form 2
Slurry output, solid form by PXRD ([2]; EtOAc/water, Aw 0.1, RT, 2 weeks): Form 2
Slurry output, solid form by PXRD ([2]; EtOAc/water, Aw 0.3, 5° C., 2 weeks): Form 2
Slurry output, solid form by PXRD ([2]; EtOAc/water, Aw 0.3, 40° C., 2 weeks): Form 2
Slurry output, solid form by PXRD ([2]; EtOAc/water, Aw 0.3, RT, 2 weeks): Form 2
Slurry output, solid form by PXRD ([2]; EtOAc/water, Aw 0.75, 5° C., 2 weeks): Form 2
Slurry output, solid form by PXRD ([2]; EtOAc/water, Aw 0.75, 40° C., 2 weeks): Form 2
Slurry output, solid form by PXRD ([2]; EtOAc/water, Aw 0.75, RT, 2 weeks): Form 2
Slurry output, solid form by PXRD ([2]; Ethanol, Aw 0, 5° C., 2 weeks): Form 2
Slurry output, solid form by PXRD ([2]; Ethanol, Aw 0, 40° C., 2 weeks): solvate
Slurry output, solid form by PXRD ([2]; MeOAc, Aw 0, 5° C., 2 weeks): Form 2
Slurry output, solid form by PXRD ([2]; MeOAc, Aw 0, 40° C., 2 weeks): Form 2
Slurry output, solid form by PXRD ([2]; MeOAc, Aw 0, RT, 2 weeks): Form 2
Slurry output, solid form by PXRD ([2]; TFE, Aw 0, 5° C., 2 weeks): Form 2
Slurry output, solid form by PXRD ([2]; TFE, Aw 0, 40° C., 2 weeks): amorphous
Slurry output, solid form by PXRD ([2]; TFE, Aw 0, RT, 2 weeks): Form 2
Slurry output, solid form by PXRD ([2]; acetone, Aw 0, 5° C., 2 weeks): Form 2
Slurry output, solid form by PXRD ([2]; acetone, Aw 0, 40° C., 2 weeks): Form 2
Slurry output, solid form by PXRD ([2]; acetone, Aw 0, RT, 2 weeks): Form 2
Slurry output, solid form by PXRD ([2]; acetone/water, Aw 0.1, 5° C., 2 weeks): Form 2
Slurry output, solid form by PXRD ([2]; acetone/water, Aw 0.1, 40° C., 2 weeks): Form 2
Slurry output, solid form by PXRD ([2]; acetone/water, Aw 0.1, RT, 2 weeks): Form 2
Slurry output, solid form by PXRD ([2]; acetone/water, Aw 0.3, 5° C., 2 weeks): Form 2
Slurry output, solid form by PXRD ([2]; acetone/water, Aw 0.3, 40° C., 2 weeks): Form 2
Slurry output, solid form by PXRD ([2]; acetone/water, Aw 0.3, RT, 2 weeks): Form 2
Slurry output, solid form by PXRD ([2]; acetone/water, Aw 0.75, 5° C., 2 weeks): Form 2
Slurry output, solid form by PXRD ([2]; acetone/water, Aw 0.75, 40° C., 2 weeks): Form 2
Slurry output, solid form by PXRD ([2]; acetone/water, Aw 0.75, RT, 2 weeks): Form 2
Slurry output, solid form by PXRD ([2]; acetone/water, Aw 0.9, 5° C., 2 weeks): Form 2
Slurry output, solid form by PXRD ([2]; acetone/water, Aw 0.9, RT, 2 weeks): Form 2
Slurry output, solid form by PXRD ([2]; acetonitrile, Aw 0, 5° C., 2 weeks): Form 2
Slurry output, solid form by PXRD ([2]; acetonitrile, Aw 0, 40° C., 2 weeks): Form 2
Slurry output, solid form by PXRD ([2]; acetonitrile, Aw 0, RT, 2 weeks): Form 2
Slurry output, solid form by PXRD ([2]; methanol, Aw 0, 5° C., 2 weeks): Form 2
Slurry output, solid form by PXRD ([2]; methanol/water, Aw 0.1, 5° C., 2 weeks): Form 2
Slurry output, solid form by PXRD ([2]; methanol/water, Aw 0.1, 40° C., 2 weeks): solvate
Slurry output, solid form by PXRD ([2]; methanol/water, Aw 0.1, RT, 2 weeks): Form 2
Slurry output, solid form by PXRD ([2]; methanol/water, Aw 0.3, 5° C., 2 weeks): Form 2
Slurry output, solid form by PXRD ([2]; methanol/water, Aw 0.3, 40° C., 2 weeks): solvate
Slurry output, solid form by PXRD ([2]; methanol/water, Aw 0.3, RT, 2 weeks): Form 2
Slurry output, solid form by PXRD ([2]; methanol/water, Aw 0.75, 5° C., 2 weeks): Form 2
Slurry output, solid form by PXRD ([2]; methanol/water, Aw 0.75, 40° C., 2 weeks): Form 2
Slurry output, solid form by PXRD ([2]; methanol/water, Aw 0.75, RT, 2 weeks): Form 2
Conversion to Form 1 in slurry (summary) ([2]; variety of solvent systems, 5° C. to 40° C., 2 weeks): No conversion to Form 1 was detected
Thermodynamic stability (summary) ([2]; wide range of water activities and solvent conditions): thermodynamically stable
Structure (SMILES): C[C@H]1Oc2cc(cnc2N)-c2c(nn(C)c2C#N)CN(C)C(=O)c2ccc(F)cc21 [lorlatinib maleate hydrate (Form 2), (10R)-7-amino-12-fluoro-2,10,16-trimethyl-15-oxo-10,15,16,17-tetrahydro-2H-8,4-(metheno)pyrazolo[4,3-h][2,5,11]benzoxadiazacyclotetradecine-3-carbonitrile (PF-06463922) Maleate Hydrate (Form 2)]
